These results are taken from ChEMBL document CHEMBL1146712, “Synthesis and biological evaluation of [4-(2-phenylethenesulfonylmethyl)phenyl]-quinazolin-4-yl-amines as orally active anti-cancer agents” (2004).

The subject of one assay is DU-145. In words: In vitro inhibition of DU145 (human prostate cancer) cell growth. In kind it is functional.
The subject of the next assay is HT-29. In words: Concentration required to inhibit growth of human colon (HT-29) cell line. In kind it is functional.
The next assay concerns MCF7. In words: Concentration required to inhibit growth of human breast (MCF-7) cell line. The format is functional.
Another assay relates to OVCAR-8. In words: Concentration required to inhibit growth of human ovarian (OVCAR8) cell line. In kind it is functional.
In a further assay the test system is PC-3. In words: Concentration required to inhibit growth of human prostate (PC3) cell line. In kind it is functional.
The next assay concerns SW-620. In words: Concentration required to inhibit growth of human colon (SW620) cell line. In kind it is functional.
In a further assay the test system is UACC-62. Description: Concentration required to inhibit growth of human melanoma (UACC62) cell line. The format is functional.
A further assay relates to U-251. In words: Concentration required to inhibit growth of human CNS (U251) cell line. The format is functional.
Another assay relates to NCI-H522 (Homo sapiens). In words: Concentration required to inhibit growth of human lung (H522) cell line.
The next assay concerns ACHN. Description: Concentration required to inhibit growth of human renal (ACHN) cell line. In kind it is functional.
The test system of the next assay is NCI/ADR-RES. In words: in vitro inhibition of MCF-7/ADR (human breast cancer) cell growth. The format is functional.
The test system of another assay is SK-OV-3. In words: Concentration required to inhibit growth of human ovarian (SK-OV3) cell line. The format is functional.

As to `O=S(=O)(/C=C/c1ccc(O)cc1)Cc1ccc(Nc2ncnc3ccc(Br)cc23)cc1`, the concentration for 50% growth inhibition (GI50) in the assay with DU-145 was 3 µM; in the assay on HT-29, 9 µM; in the assay on MCF7, 32 µM; in the assay with OVCAR-8 it was above 100 µM; in the assay on PC-3, 42 µM; with SW-620 it was 94 µM. Besides, the GI50 with UACC-62 is 28 µM; in the assay with U-251 it was above 100 µM; in the assay with NCI-H522 (Homo sapiens), 27 µM.
In the case of `COc1cc2ncnc(Nc3ccc(CS(=O)(=O)/C=C/c4ccc(Br)cc4)cc3)c2cc1OC`, the 50% growth inhibitory concentration (GI50) in the assay with ACHN was determined as 4 µM; in the assay on HT-29, 24 µM; in the assay on NCI/ADR-RES, 72 µM; with MCF7, 32 µM; in the assay with OVCAR-8, 6 µM; in the assay with PC-3 it was 9.5 µM. Moreover, the concentration for 50% growth inhibition (GI50) in the assay on SK-OV-3 was 50 µM; in the assay on SW-620, 5 µM; in the assay on UACC-62 it was 63 µM; with U-251, 11 µM; in the assay on NCI-H522 (Homo sapiens), 8 µM.
Consider `COc1cc2ncnc(Nc3ccc(CS(=O)(=O)/C=C/c4ccc(F)cc4)cc3)c2cc1OCCN1CCOCC1`, for which the 50% growth inhibitory concentration (GI50) in the assay with ACHN is 66 µM; with HT-29, 100 µM; with MCF7 it was 100 µM; in the assay on OVCAR-8 it was 48 µM; in the assay on PC-3, 100 µM; in the assay on SK-OV-3 it was 36 µM. Besides, the GI50 with SW-620, in the assay on UACC-62, with U-251 and in the assay with NCI-H522 (Homo sapiens) was 100 µM each time.
As for `O=S(=O)(/C=C/c1ccc(C(F)(F)F)cc1F)Cc1ccc(Nc2ncnc3ccc(Br)cc23)cc1`, the concentration for 50% growth inhibition (GI50) with ACHN was 16 µM; with HT-29 it was 100 µM; with NCI/ADR-RES it was 85 µM; in the assay with MCF7, 32 µM; in the assay with OVCAR-8 it was 15 µM; with PC-3, 58 µM. Moreover, the GI50 with SK-OV-3 came to 5 µM; with SW-620, 55 µM; in the assay on UACC-62, 22 µM; with U-251, 30 µM; in the assay with NCI-H522 (Homo sapiens), 40 µM.
Turning to `O=S(=O)(/C=C/c1ccc(Cl)cc1)Cc1ccc(Nc2ncnc3ccc(Br)cc23)cc1`, the GI50 is 1 µM with DU-145; above 100 µM with HT-29; 46 µM with MCF7; 3 µM in the assay on OVCAR-8; 2 µM in the assay with PC-3; 45 µM with SW-620. The 50% growth inhibitory concentration (GI50) amounted to 15 µM with UACC-62, 30 µM in the assay with U-251 and 13 µM in the assay on NCI-H522 (Homo sapiens).
In the case of `O=S(=O)(/C=C/c1ccc(Cl)c(Cl)c1)Cc1ccc(Nc2ncnc3ccccc23)cc1`, the 50% growth inhibitory concentration (GI50) in the assay with ACHN stood at 28 µM; in the assay on HT-29, 11 µM; in the assay with NCI/ADR-RES, 22 µM; in the assay on MCF7, 28 µM; in the assay on OVCAR-8, 14 µM; in the assay with PC-3 it was 35 µM. Moreover, the concentration for 50% growth inhibition (GI50) with SK-OV-3 came out at 22 µM; in the assay on SW-620 it was 41 µM; in the assay on UACC-62 it was 21 µM; in the assay with U-251, 11 µM; with NCI-H522 (Homo sapiens), 32 µM.
On to `O=S(=O)(/C=C/c1ccc(C(F)(F)F)cc1F)Cc1ccc(Nc2ncnc3ccccc23)cc1`, for which the GI50 in the assay with ACHN, in the assay with HT-29, in the assay on NCI/ADR-RES, in the assay with MCF7, in the assay with OVCAR-8 and in the assay with PC-3 was 100 µM each time. The GI50 came to 39 µM with SK-OV-3; 100 µM in the assay on SW-620; 100 µM with UACC-62; 100 µM with U-251; 100 µM with NCI-H522 (Homo sapiens).
`O=S(=O)(/C=C/c1ccc(F)cc1F)Cc1ccc(Nc2ncnc3ccccc23)cc1`: the 50% growth inhibitory concentration (GI50) was 31 µM with ACHN; above 100 µM in the assay on HT-29; above 100 µM in the assay with NCI/ADR-RES; above 100 µM in the assay on MCF7; above 100 µM in the assay on OVCAR-8; above 100 µM in the assay with PC-3. In addition, the concentration for 50% growth inhibition (GI50) in the assay on SK-OV-3 was 69 µM; in the assay with SW-620, 86 µM; in the assay with UACC-62, above 100 µM; in the assay with U-251 it was above 100 µM.
`O=S(=O)(/C=C/c1ccc(O)cc1)Cc1ccc(Nc2ncnc3ccccc23)cc1`: the GI50 came out at 0.02 µM in the assay with ACHN; 19 µM in the assay with DU-145; 2 µM in the assay on HT-29; 100 µM in the assay with MCF7; 1 µM in the assay on OVCAR-8; 14 µM in the assay on PC-3. The concentration for 50% growth inhibition (GI50) stood at 14 µM in the assay with SK-OV-3; 100 µM in the assay with SW-620; 100 µM in the assay on UACC-62; 0.3 µM in the assay with U-251; 100 µM in the assay with NCI-H522 (Homo sapiens).
Consider `O=S(=O)(/C=C/c1ccc(F)cc1F)Cc1ccc(Nc2ncnc3ccc(Br)cc23)cc1`, for which the GI50 with ACHN came to 8 µM; in the assay with HT-29, 100 µM; with NCI/ADR-RES, 100 µM; in the assay on MCF7, 100 µM; in the assay on OVCAR-8 it was 100 µM; with PC-3, 100 µM. Also, the GI50 is 2 µM in the assay on SK-OV-3; 100 µM with SW-620; 3 µM in the assay on UACC-62; 32 µM in the assay on U-251; 100 µM in the assay on NCI-H522 (Homo sapiens).
Consider `COc1cc2ncnc(Nc3ccc(CS(=O)(=O)/C=C/c4ccc(Cl)cc4Cl)cc3)c2cc1OCCCN1CCOCC1`, for which the 50% growth inhibitory concentration (GI50) with ACHN is 3.4 µM; in the assay with DU-145, 1.3 µM; in the assay with HT-29 it was 4 µM; in the assay on NCI/ADR-RES, above 100 µM; in the assay on MCF7 it was 54 µM; in the assay on OVCAR-8 it was 12 µM. Moreover, the GI50 was determined as 5 µM in the assay with PC-3; 2.4 µM with SK-OV-3; 7 µM in the assay with SW-620; 23 µM in the assay with UACC-62; 4 µM in the assay with U-251.
In the case of `O=S(=O)(/C=C/c1ccc(Cl)cc1Cl)Cc1ccc(Nc2ncnc3cc(Cl)ccc23)cc1`, the GI50 with ACHN was 8 µM; with HT-29, 59 µM; in the assay on NCI/ADR-RES it was above 100 µM; in the assay on MCF7, 25 µM; in the assay on OVCAR-8, above 100 µM; in the assay on PC-3, 38 µM. The GI50 was 48 µM in the assay with SK-OV-3; above 100 µM in the assay on SW-620; 32 µM with UACC-62; 53 µM with U-251; 76 µM in the assay on NCI-H522 (Homo sapiens).
Turning to `O=S(=O)(/C=C/c1ccc(Cl)c(Cl)c1)Cc1ccc(Nc2ncnc3ccc(Br)cc23)cc1`, the concentration for 50% growth inhibition (GI50) in the assay on DU-145 was determined as 17 µM; in the assay on HT-29, 27 µM; with MCF7 it was 14 µM; with OVCAR-8 it was 0.1 µM; in the assay with PC-3 it was 11 µM; with SW-620, 5 µM. Besides, the concentration for 50% growth inhibition (GI50) in the assay on UACC-62 was 30 µM; in the assay with U-251 it was above 100 µM; with NCI-H522 (Homo sapiens) it was above 100 µM.
As to `O=S(=O)(/C=C/c1ccc(F)cc1Cl)Cc1ccc(Nc2ncnc3ccccc23)cc1`, the 50% growth inhibitory concentration (GI50) was found to be 73 µM with ACHN; 100 µM in the assay on HT-29; 66 µM with NCI/ADR-RES; 21 µM in the assay with MCF7; 100 µM in the assay with OVCAR-8; 100 µM in the assay with PC-3. The 50% growth inhibitory concentration (GI50) was 44 µM in the assay on SK-OV-3; 100 µM in the assay with SW-620; 100 µM in the assay with UACC-62; 100 µM with U-251; 100 µM in the assay on NCI-H522 (Homo sapiens).
In the case of `O=S(=O)(/C=C/c1ccc(Br)cc1)Cc1ccc(Nc2ncnc3ccc(Br)cc23)cc1`, the concentration for 50% growth inhibition (GI50) in the assay on DU-145 is 3 µM; with HT-29, 10 µM; with MCF7, 5 µM; in the assay with OVCAR-8 it was 2 µM; in the assay with PC-3, 34 µM; with SW-620, above 100 µM. Besides, the GI50 was above 100 µM with UACC-62, 11 µM in the assay on U-251 and 20 µM in the assay with NCI-H522 (Homo sapiens).

The term GI50 denotes the concentration that inhibits growth by half. A high value points to less potent growth inhibition.
